Results reported in ChEMBL document CHEMBL3621140, “Sulfonamide derivatives containing dihydropyrazole moieties selectively and potently inhibit MMP-2/MMP-9: Design, synthesis, inhibitory activity and 3D-QSAR analysis” (Bioorg Med Chem Lett, 2015).

Experiments:
[1] = molecular target: Matrix metalloproteinase-9 (Homo sapiens, UniProt P14780); test: Inhibition of APMA-activated human recombinant MMP9 incubated for 5 mins using 4-nitrophenylacetate substrate by esterase assay
HeLa = test: Antiproliferative activity against human HeLa cells incubated for 48 hrs by MTT assay; format: functional, cell-based
A549 = test: cells; settings: Homo sapiens, A549, 48 h
HepG2 = test: Antiproliferative activity against human HepG2 cells incubated for 48 hrs by MTT assay; format: functional, cell-based; settings: HepG2, 48 h
MCF7 = test: Antiproliferative activity against human MCF7 cells incubated for 48 hrs by MTT assay; format: functional, cell-based; settings: MCF7, 48 h
[2] = molecular target: 72 kDa type IV collagenase (Homo sapiens, UniProt P08253); test: Inhibition of APMA-activated human recombinant MMP2 incubated for 5 mins using 4-nitrophenylacetate substrate by esterase assay
72 kDa type IV collagenase, sequence (P08253 whole entry): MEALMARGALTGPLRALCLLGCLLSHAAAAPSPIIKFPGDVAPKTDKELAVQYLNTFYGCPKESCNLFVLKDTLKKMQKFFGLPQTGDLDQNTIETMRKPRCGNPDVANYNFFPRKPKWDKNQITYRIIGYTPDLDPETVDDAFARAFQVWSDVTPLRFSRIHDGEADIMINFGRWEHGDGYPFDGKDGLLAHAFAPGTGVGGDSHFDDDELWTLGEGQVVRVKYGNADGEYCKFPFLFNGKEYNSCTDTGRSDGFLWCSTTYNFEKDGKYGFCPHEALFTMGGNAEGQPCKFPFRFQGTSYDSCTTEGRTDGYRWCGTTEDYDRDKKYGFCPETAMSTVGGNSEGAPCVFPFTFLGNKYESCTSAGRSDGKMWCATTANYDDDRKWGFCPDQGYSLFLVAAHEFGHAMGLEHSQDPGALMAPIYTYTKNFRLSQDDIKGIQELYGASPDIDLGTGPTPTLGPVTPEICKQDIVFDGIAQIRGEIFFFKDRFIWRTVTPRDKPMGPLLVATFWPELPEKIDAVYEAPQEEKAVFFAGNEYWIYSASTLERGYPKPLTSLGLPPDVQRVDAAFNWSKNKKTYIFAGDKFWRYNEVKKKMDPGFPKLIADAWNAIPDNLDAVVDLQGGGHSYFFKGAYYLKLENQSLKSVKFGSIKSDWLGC

[3] = Cytotoxicity against HEK293T cells incubated for 48 hrs by MTT assay; format: cell-based, HEK-293T; settings: human

Matrix metalloproteinase-9, sequence (P14780 whole entry): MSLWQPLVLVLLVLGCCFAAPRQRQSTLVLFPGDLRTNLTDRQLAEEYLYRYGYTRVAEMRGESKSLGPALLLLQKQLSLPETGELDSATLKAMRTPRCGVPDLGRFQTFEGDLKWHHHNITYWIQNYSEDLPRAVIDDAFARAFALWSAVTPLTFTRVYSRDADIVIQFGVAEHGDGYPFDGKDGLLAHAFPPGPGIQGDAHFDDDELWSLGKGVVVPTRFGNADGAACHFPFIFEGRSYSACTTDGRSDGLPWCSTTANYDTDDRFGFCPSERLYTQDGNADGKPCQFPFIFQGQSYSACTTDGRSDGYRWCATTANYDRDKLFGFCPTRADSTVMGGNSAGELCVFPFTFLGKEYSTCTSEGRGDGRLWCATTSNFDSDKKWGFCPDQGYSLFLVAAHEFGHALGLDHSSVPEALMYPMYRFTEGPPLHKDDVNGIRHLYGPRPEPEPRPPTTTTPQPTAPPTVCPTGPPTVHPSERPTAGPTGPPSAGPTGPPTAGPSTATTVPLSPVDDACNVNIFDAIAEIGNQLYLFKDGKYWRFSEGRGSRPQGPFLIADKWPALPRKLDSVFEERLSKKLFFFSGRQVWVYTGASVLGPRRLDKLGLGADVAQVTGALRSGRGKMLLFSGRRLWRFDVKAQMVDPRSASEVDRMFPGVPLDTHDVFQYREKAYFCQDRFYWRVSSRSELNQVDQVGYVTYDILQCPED

COc1ccc(C2=NN(c3ccc(S(N)(=O)=O)cc3)C(c3cccc4ccccc34)C2)cc1 (centres undefined)
IC50 [1]: 8.61 µM | IC50 (HeLa): 30.1 µM | IC50 (A549): 6.51 µM | IC50 (HepG2): 27.8 µM | IC50 (MCF7): 26.4 µM | IC50 ([2]; read-out: IC50): 4.27 µM | IC50 ([2]; read-out: pIC50 (converted)): 4.17 µM | CC50 at 48 h [3]: 47.1 µM

NS(=O)(=O)c1ccc(N2N=C(c3cccc(I)c3)CC2c2cccc3ccccc23)cc1 (centres undefined)
IC50 [1]: 12.9 µM | IC50 (HeLa): 26 µM | IC50 (A549): 6.83 µM | IC50 (HepG2): 8.06 µM | IC50 (MCF7): 18.1 µM | IC50 ([2]; read-out: IC50): 9.43 µM | CC50 at 48 h [3]: 46.9 µM

NS(=O)(=O)c1ccc(N2N=C(c3ccccc3Cl)CC2c2ccc3ccccc3c2)cc1 (centres undefined)
IC50 [1]: 8.72 µM | IC50 (HeLa): 16.4 µM | IC50 (A549): 2.16 µM | IC50 (HepG2): 31.1 µM | IC50 (MCF7): 8.64 µM | IC50 ([2]; read-out: IC50): 14.8 µM | CC50 at 48 h [3]: 49.9 µM

C[C@@]1(O)c2cccc(O)c2C(=O)C2=C(O)[C@]3(O)C(=O)C(C(N)=O)=C(O)C[C@@H]3C[C@@H]21
IC50 [1]: 2.52 µM | IC50 ([2]; read-out: IC50): 1.26 µM

NS(=O)(=O)c1ccc(N2N=C(c3ccccc3)CC2c2cccc3ccccc23)cc1 (centres undefined)
IC50 [1]: 10.9 µM | IC50 (HeLa): 20.2 µM | IC50 (A549): 12.9 µM | IC50 (HepG2): 19.1 µM | IC50 (MCF7): 22.6 µM | IC50 ([2]; read-out: IC50): 7.92 µM | CC50 at 48 h [3]: 51.4 µM

NS(=O)(=O)c1ccc(N2N=C(c3cccc(Br)c3)CC2c2cccc3ccccc23)cc1 (centres undefined)
IC50 [1]: 7.97 µM | IC50 (HeLa): 28.8 µM | IC50 (A549): 8.19 µM | IC50 (HepG2): 14.9 µM | IC50 (MCF7): 28.8 µM | IC50 ([2]; read-out: IC50): 11.4 µM | IC50 ([2]; read-out: pIC50 (converted)): 11.2 µM | CC50 at 48 h [3]: 42.2 µM

Cc1cccc(C2=NN(c3ccc(S(N)(=O)=O)cc3)C(c3cccc4ccccc34)C2)c1 (centres undefined)
IC50 [1]: 4.29 µM | IC50 (HeLa): 9.87 µM | IC50 (A549): 3.14 µM | IC50 (HepG2): 5.83 µM | IC50 (MCF7): 8.63 µM | IC50 ([2]; read-out: IC50): 3.24 µM | CC50 at 48 h [3]: 48.2 µM

COc1cc2ncnc(Nc3ccc(F)c(Cl)c3)c2cc1OCCCN1CCOCC1 [GEFITINIB]
IC50 (A549): 2.86 µM

Cc1ccc(-c2cc(C(F)(F)F)nn2-c2ccc(S(N)(=O)=O)cc2)cc1 [CELECOXIB]
IC50 (HeLa): 7.55 µM | IC50 (A549): 2.15 µM | IC50 (HepG2): 0.76 µM | IC50 (MCF7): 6.88 µM | CC50 at 48 h [3]: 54.4 µM

Cc1ccccc1C1=NN(c2ccc(S(N)(=O)=O)cc2)C(c2ccc3ccccc3c2)C1 (centres undefined)
IC50 [1]: 7.91 µM | IC50 (HeLa): 15.6 µM | IC50 (A549): 6.84 µM | IC50 (HepG2): 6.88 µM | IC50 (MCF7): 16.3 µM | IC50 ([2]; read-out: IC50): 11.4 µM | CC50 at 48 h [3]: 51.7 µM

NS(=O)(=O)c1ccc(N2N=C(c3cccc(I)c3)CC2c2ccc3ccccc3c2)cc1 (centres undefined)
IC50 [1]: 6.91 µM | IC50 (HeLa): 32 µM | IC50 (A549): 12 µM | IC50 (HepG2): 18.1 µM | IC50 (MCF7): 11.1 µM | IC50 ([2]; read-out: IC50): 15.7 µM | CC50 at 48 h [3]: 55.9 µM

Cc1ccc(C2=NN(c3ccc(S(N)(=O)=O)cc3)C(c3cccc4ccccc34)C2)cc1 (centres undefined)
IC50 [1]: 16 µM | IC50 (HeLa): 8.61 µM | IC50 (A549): 7.77 µM | IC50 (HepG2): 7.04 µM | IC50 (MCF7): 9.89 µM | IC50 ([2]; read-out: IC50): 6.81 µM | CC50 at 48 h [3]: 51.3 µM

COc1ccc(C2=NN(c3ccc(S(N)(=O)=O)cc3)C(c3ccc4ccccc4c3)C2)cc1 (centres undefined)
IC50 [1]: 19 µM | IC50 (HeLa): 35.4 µM | IC50 (A549): 9.31 µM | IC50 (HepG2): 22.3 µM | IC50 (MCF7): 50.6 µM | IC50 ([2]; read-out: IC50): 9.9 µM | CC50 at 48 h [3]: 45.4 µM

Cc1ccccc1C1=NN(c2ccc(S(N)(=O)=O)cc2)C(c2cccc3ccccc23)C1 (centres undefined)
IC50 [1]: 5.43 µM | IC50 (HeLa): 6.37 µM | IC50 (A549): 2.84 µM | IC50 (HepG2): 5.38 µM | IC50 (MCF7): 10 µM | IC50 ([2]; read-out: IC50): 2.91 µM | CC50 at 48 h [3]: 51.2 µM

NS(=O)(=O)c1ccc(N2N=C(c3ccccc3Cl)CC2c2cccc3ccccc23)cc1 (centres undefined)
IC50 [1]: 12 µM | IC50 (HeLa): 29.1 µM | IC50 (A549): 7.38 µM | IC50 (HepG2): 10 µM | IC50 (MCF7): 23.6 µM | IC50 ([2]; read-out: IC50): 8.63 µM | IC50 ([2]; read-out: pIC50 (converted)): 8.51 µM | CC50 at 48 h [3]: 53.1 µM

NS(=O)(=O)c1ccc(N2N=C(c3cccc(F)c3)CC2c2ccc3ccccc3c2)cc1 (centres undefined)
IC50 [1]: 5.96 µM | IC50 (HeLa): 21.1 µM | IC50 (A549): 7.83 µM | IC50 (HepG2): 24.8 µM | IC50 (MCF7): 13.1 µM | IC50 ([2]; read-out: IC50): 23.8 µM | CC50 at 48 h [3]: 49 µM

COc1cccc(C2=NN(c3ccc(S(N)(=O)=O)cc3)C(c3cccc4ccccc34)C2)c1 (centres undefined)
IC50 [1]: 6.72 µM | IC50 (HeLa): 30.6 µM | IC50 (A549): 5.82 µM | IC50 (HepG2): 36.4 µM | IC50 (MCF7): 26.1 µM | IC50 ([2]; read-out: IC50): 4.83 µM | CC50 at 48 h [3]: 45.3 µM

Cc1cccc(C2=NN(c3ccc(S(N)(=O)=O)cc3)C(c3ccc4ccccc4c3)C2)c1 (centres undefined)
IC50 [1]: 5.92 µM | IC50 (HeLa): 26.4 µM | IC50 (A549): 7.64 µM | IC50 (HepG2): 7.68 µM | IC50 (MCF7): 11.1 µM | IC50 ([2]; read-out: IC50): 3.86 µM | CC50 at 48 h [3]: 52.4 µM

NS(=O)(=O)c1ccc(N2N=C(c3cccc(Br)c3)CC2c2ccc3ccccc3c2)cc1 (centres undefined)
IC50 [1]: 13.9 µM | IC50 (HeLa): 23.7 µM | IC50 (A549): 10.3 µM | IC50 (HepG2): 29 µM | IC50 (MCF7): 9.15 µM | IC50 ([2]; read-out: IC50): 17.8 µM | CC50 at 48 h [3]: 47 µM

NS(=O)(=O)c1ccc(N2N=C(c3ccccc3)CC2c2ccc3ccccc3c2)cc1 (centres undefined)
IC50 [1]: 33.8 µM | IC50 (HeLa): 13 µM | IC50 (A549): 8.42 µM | IC50 (HepG2): 17.9 µM | IC50 (MCF7): 21.6 µM | IC50 ([2]; read-out: IC50): 12.6 µM | CC50 at 48 h [3]: 50.5 µM

NS(=O)(=O)c1ccc(N2N=C(c3ccc(Cl)cc3)CC2c2ccc3ccccc3c2)cc1 (centres undefined)
IC50 [1]: 5.88 µM | IC50 (HeLa): 19.2 µM | IC50 (A549): 2.76 µM | IC50 (HepG2): 25 µM | IC50 (MCF7): 12.4 µM | IC50 ([2]; read-out: IC50): 3.6 µM | CC50 at 48 h [3]: 54.8 µM

CCOc1ccc(C2=NN(c3ccc(S(N)(=O)=O)cc3)C(c3ccc4ccccc4c3)C2)cc1 (centres undefined)
IC50 [1]: 18.3 µM | IC50 (HeLa): 35.4 µM | IC50 (A549): 17.8 µM | IC50 (HepG2): 9.17 µM | IC50 (MCF7): 38.2 µM | IC50 ([2]; read-out: IC50): 14.9 µM | CC50 at 48 h [3]: 53.8 µM

NS(=O)(=O)c1ccc(N2N=C(c3ccc(F)cc3)CC2c2ccc3ccccc3c2)cc1 (centres undefined)
IC50 [1]: 19.8 µM | IC50 (HeLa): 26.1 µM | IC50 (A549): 6.95 µM | IC50 (HepG2): 20.7 µM | IC50 (MCF7): 12.3 µM | IC50 ([2]; read-out: IC50): 16.8 µM | CC50 at 48 h [3]: 49.5 µM

Cc1ccc(C2=NN(c3ccc(S(N)(=O)=O)cc3)C(c3ccc4ccccc4c3)C2)cc1 (centres undefined)
IC50 [1]: 4.95 µM | IC50 (HeLa): 17.6 µM | IC50 (A549): 6.9 µM | IC50 (HepG2): 8.32 µM | IC50 (MCF7): 18.2 µM | IC50 ([2]; read-out: IC50): 2.81 µM | CC50 at 48 h [3]: 53.1 µM

CCOc1ccc(C2=NN(c3ccc(S(N)(=O)=O)cc3)C(c3cccc4ccccc34)C2)cc1 (centres undefined)
IC50 [1]: 3.19 µM | IC50 (HeLa): 18.5 µM | IC50 (A549): 3.33 µM | IC50 (HepG2): 8.66 µM | IC50 (MCF7): 35.1 µM | IC50 ([2]; read-out: IC50): 0.81 µM | CC50 at 48 h [3]: 59.5 µM

COc1cccc(C2=NN(c3ccc(S(N)(=O)=O)cc3)C(c3ccc4ccccc4c3)C2)c1 (centres undefined)
IC50 [1]: 4.68 µM | IC50 (HeLa): 36.5 µM | IC50 (A549): 8.67 µM | IC50 (HepG2): 26 µM | IC50 (MCF7): 13.6 µM | IC50 ([2]; read-out: IC50): 2.15 µM | CC50 at 48 h [3]: 49.4 µM

NS(=O)(=O)c1ccc(N2N=C(c3ccc(Cl)cc3)CC2c2cccc3ccccc23)cc1 (centres undefined)
IC50 [1]: 5.47 µM | IC50 (HeLa): 11.5 µM | IC50 (A549): 2.98 µM | IC50 (HepG2): 16.4 µM | IC50 (MCF7): 18 µM | IC50 ([2]; read-out: IC50): 2.7 µM | CC50 at 48 h [3]: 49.2 µM
